Assay: gradient 5% acetonitrile 3 min, to 50% in 2 min, to 85% in 15 min, held 3 min, 100 µL/min
Conditions: column: Zorbax Extend-C18 2.1 x 50 mm; eluents: water / acetonitrile, 0.1% formic acid
In short: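 Retention times of pure standards were taken from adduct peaks that were selected by computer and manually inspected. Over 3 months, mixtures of ~100 molecules were run by HPLC–quadrupole time-of-flight mass spectrometry in positive and negative ionization mode. The Zorbax Extend-C18 column (2.1 × 50 mm, 1.8 μm) ran at 100 μL/min in water and acetonitrile, each containing 0.1% formic acid, with 40 μL dead volume and 900 μL dwell volume.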

RP-LC retention time	SMILES
717 s	O=C(Cn1cnc2nc(N3CCCC(C(=O)NC4CC4)C3)sc2c1=O)Nc1cc(F)cc(F)c1 (centres undefined)
1040 s	Cc1nc(-c2cc(S(=O)(=O)N3CCC(C(=O)N4CCc5ccccc54)CC3)c(C)s2)no1
1130 s	COc1cc(OC)cc(-c2noc(-c3nnn(Cc4nc(-c5ccccc5OC)oc4C)c3C)n2)c1
847 s	COc1ccc(N2CC(c3noc(-c4cccc(F)c4)n3)CC2=O)cc1OC (centres undefined)
655 s	COc1ccc(C(=O)N2CCC3(C2)C(=O)Nc2ccccc23)c(OC)c1 (centres undefined)
547 s	Cc1nnc(NC(=O)CCc2c(C)[nH]c(=O)[nH]c2=O)s1
619 s	COCC(=O)NC1CCC12CCN(C(=O)C1CC1)CC2 (centres undefined)
992 s	Cc1ccc(S(=O)(=O)N2C[C@@H](F)C[C@H]2C(=O)N2CCc3ccccc3C2)c(C)c1
836 s	COc1ccc(NC(=O)c2cnc3c(c2)c(=O)n(C)c(=O)n3-c2ccc(C)cc2)cc1OC
659 s	CCOc1ccc(C(=O)N2CCN(c3cnn4c(C5CC5)nnc4c3)CC2)cc1
856 s	COC(=O)CCc1sc(NC2CCCCC2)nc1-c1ccc(OC)cc1
623 s	CCN(CCCNC(=O)C1CCN(S(=O)(=O)N2CCOCC2)CC1)c1cccc(C)c1
797 s	O=C(NCc1ccc(Cl)cc1)C1CCN(C(=O)c2cc3ccsc3[nH]2)CC1
670 s	O=C(C1CCC1)N1CCC(Oc2cc(N3CCOCC3)ncn2)C1 (centres undefined)
1040 s	Fc1ccc(-c2noc(-c3ccc(N4CCCC4)nc3)n2)cc1
1010 s	CC1CCN(c2cc3c(cc2NC(=O)C(C)(C)C)n(C)c(=O)c(=O)n3C)CC1
649 s	COCCC(=O)N1CC(F)(F)C[C@H]1c1nc(COC)no1
713 s	CN(C)c1ccc(C(=O)NC2CCN(c3ccccc3)C2=O)cc1 (centres undefined)
732 s	CCN1C(=O)Cc2ccccc2C1C(=O)N(C)Cc1ccco1 (centres undefined)
571 s	CCc1nnc(NC(=O)c2ccc3c(c2)c(=O)cc(C)n3CC)s1
922 s	CC(C)Cn1cc(CCNC(=O)c2cccc(Br)c2)c2cccnc21
943 s	Cc1ccc(-c2noc(C3CC(=O)N(c4ccc5c(c4)OCCO5)C3)n2)cc1 (centres undefined)

RP-LC retention time	SMILES
1020 s	Cc1ccc(-c2cc3c4nnc(SCC(=O)Nc5ccccc5C(F)(F)F)n4ccn3n2)cc1C
591 s	CN1CCN(CCNC(=O)c2ccc3c(c2)nnn3Cc2ccc(F)cc2)CC1
873 s	CCc1cccc(C)c1Nc1c(-c2ccc(OC)cc2)nc2cnccn12
654 s	Cc1noc(C)c1S(=O)(=O)N1CCC(C(C)C(=O)N2CCN(C3CCCCC3)CC2)CC1 (centres undefined)
783 s	O=C(Nc1ccc(F)cc1)NC1CCN(c2ccc(F)cc2)C1=O (centres undefined)
602 s	COc1ccc(N2CCN(C(=O)C3CCN(c4cncnc4N(C)C)CC3)CC2)cc1
914 s	Cc1ccc(N2CC(c3noc(C4CCC4)n3)CC2=O)cc1 (centres undefined)
746 s	CCC(C)NC(=O)C1CCCN(c2nnc(C)c3c(C)n(-c4ccc(Cl)cc4)nc23)C1 (centres undefined)
608 s	CCc1nnc2cc(N3CCN(Cc4ccc(C(C)C)cc4)CC3)cnn12
822 s	Cc1ccc(C(=O)NCC2CC(=O)N(c3ccc(Cl)cc3)C2)cc1[N+](=O)[O-] (centres undefined)
643 s	O=C(c1ccc2nc[nH]c2c1)N1CCCn2nc(-c3ccc(Cl)cc3)cc2C1
796 s	CCOCCCNS(=O)(=O)c1cc(-c2ccno2)cs1
721 s	CN1C(=O)CCCCC1C(=O)N1CCc2ccccc21 (centres undefined)
1050 s	COc1ccccc1NC(=O)N1CCOc2ccc(Cl)cc21
1030 s	CCOc1ccc(-c2noc(CN3C(=O)COc4ccccc43)n2)cc1
570 s	CCc1cccc(C)c1NC(=O)Cn1ncc2c(N3CCN(c4ccccn4)CC3)ncnc21
576 s	O=C([C@@H]1C[C@H](F)CN1C(=O)c1ccoc1)N1CCCCC1
713 s	NC(=O)C1CCN(C(=O)c2ccc(CN3C(=O)CCn4nc(-c5ccc(Cl)cc5)cc43)cc2)CC1
747 s	Nc1cc(C2CCN(C(=O)/C=C/c3ccccc3Cl)CC2)no1
624 s	CS(=O)(=O)c1ccc(NCCCC(=O)O)c([N+](=O)[O-])c1
800 s	CCCCNC(=O)C1CCN(Cc2cc3ccccc3n2Cc2cccc(C)c2)CC1
577 s	CCCN1CCN(C(=O)CN(C)S(=O)(=O)c2ccc3c(c2)CCCC(=O)N3)CC1

RP-LC retention time	SMILES
757 s	CC(C)c1ccc2c(c1)-c1ccccc1S(=O)(=O)N2CC(=O)NCc1ccccn1
630 s	Cc1cccc(C2(O)C(=O)N(CC(=O)NCc3ccco3)c3ccccc32)c1 (centres undefined)
926 s	Cc1csc(-c2cc(S(=O)(=O)NC(C)(C)C)cn2CC(=O)N2CCCCC2)n1
723 s	Cc1cc(C)c(NC(=O)Cn2cnc3nc(N4CCCC(C(=O)NC5CC5)C4)sc3c2=O)c(C)c1 (centres undefined)
654 s	O=C(Nc1nc(-c2cccnc2)cs1)c1ccc(Br)s1
700 s	Cc1cc2c(N3CCCC(C(=O)NCc4ccc(F)cc4F)C3)nccc2s1 (centres undefined)
896 s	CCOC(=O)N1CCN(C(=O)C2CCN(c3ccc(Sc4ccc(C(C)C)cc4)nn3)CC2)CC1
646 s	Cc1ccccc1OCCCCn1c(CN2CCOCC2)nc2ccccc21
772 s	O=C(Nc1ccccc1F)C1CCCN(S(=O)(=O)c2c[nH]c(C(=O)N3CCCC3)c2)C1 (centres undefined)
648 s	COc1ccccc1/C=C/c1nc(C#N)c(NCCN(C)C)o1
1210 s	CCOc1cccc(-c2noc(-c3nnn4c3COC(c3ccc(OC)cc3)C4)n2)c1 (centres undefined)
608 s	CCCn1ncc(N2CCC(C(=O)NCC3CCCO3)CC2)cc1=O (centres undefined)
566 s	O=C(NCCCN1CCc2ccccc2C1)c1c(OCC2CC2)cc(=O)n2c1CCCCC2
631 s	O=C(Nc1cccc(-c2ccn[nH]2)c1)c1ccco1
660 s	Cc1cc(N2CCN(S(=O)(=O)c3cc(F)ccc3F)CC2)nc(N2CCOCC2)n1
650 s	CCOC(=O)c1[nH]c(C)c(CCC(=O)N2CCC(C(=O)NC3CC3)CC2)c1C
1090 s	CCOc1cccc(-c2noc(Cn3nc(-c4cccc(OC)c4)ccc3=O)n2)c1
1250 s	COc1cccc(-c2noc(CN3C(=O)COc4ccc(C(C)(C)C)cc43)n2)c1
602 s	COc1cccc(CNC(=O)c2cc3ccncc3n2C)c1OC
650 s	Cn1c(N2CCCC(C(=O)NCc3cccs3)C2)cc(=O)n(C)c1=O (centres undefined)
1010 s	Cc1ccc(C)c(N2CCN(C(=O)C3CCCN(C(=O)c4[nH]c(C)cc4C)C3)CC2)c1 (centres undefined)
638 s	O=C(NCCC1=CCCCC1)C1CCN(c2ccncc2)CC1

RP-LC retention time	SMILES
1170 s	CCn1nccc1-c1cccc(-c2noc(C3CCN(S(=O)(=O)c4ccc(C)cc4)CC3)n2)c1
763 s	Cc1ccc(Nc2c(-c3c(F)cccc3Cl)nc3cccc(C)n23)cc1
777 s	O=C(c1ccoc1)N1CCC(c2cc(-c3ccc(F)cc3)n[nH]2)CC1
642 s	COCc1nncn1C1CN(C(=O)Cc2ccc(Cl)cc2)C1
661 s	COc1ccc(N2CCN(C(=O)C3CCCN(c4nnc5cccc(C)n45)C3)CC2)cc1 (centres undefined)
620 s	Cc1ccc2nc(C)c(NC(=O)c3ccccc3C(F)(F)F)c(=O)n2c1
898 s	CCOc1ccc(NC(=O)N2CCc3cn(CCOC)c4cccc(c34)C2)cc1
874 s	Cc1ccc(F)c(NC(=O)c2sc(-c3cn(C)c4ncccc34)nc2C)c1
838 s	C=CCNC(=O)CN1C(=O)C2CCCCN2c2ccc(C(=O)N3CCCC3)cc21 (centres undefined)
593 s	Cc1nc2nc3c(cn2n1)C(=O)CCC3
739 s	CCc1ccc(NS(=O)(=O)c2cc3n(c2)CCCN(C)C3=O)cc1
962 s	Cc1noc(-c2cccn2Cc2cccc(F)c2)n1
1010 s	COc1ccccc1-c1coc2cc(OC(=O)c3cccc([N+](=O)[O-])c3)ccc2c1=O
1010 s	Cc1ccc(OCC(=O)Nc2cncc(-c3nc4ccccc4o3)c2)cc1
801 s	COc1ccc(OC)c(C2NC(=O)NC(C)=C2C(=O)OCC(F)(F)C(F)(F)F)c1 (centres undefined)
580 s	CC(=O)N1CCC2(CC1)OC(=O)C(C)=C2C(=O)NCCCN(Cc1ccccc1)C(C)C
982 s	Cc1ccccc1CNC(=O)c1cn(-c2cc(-c3nc(C4CC4)no3)ccn2)cn1
833 s	CN1c2cc(C(=O)NCc3ccc(F)cc3Cl)ccc2C(=O)N2CCCCC21 (centres undefined)
599 s	CCOC(=O)c1noc2ncnc(NCCCN3CCN(c4ccc(F)cc4)CC3)c12
1030 s	COC1CN(c2cccc(F)c2)C12CCN(C(=O)NC1CCCCC1)CC2 (centres undefined)
1120 s	COc1cccc(CNS(=O)(=O)c2cc(-c3cc(C(F)(F)F)on3)sc2C)c1
901 s	COc1ccc(-c2nnc(COc3cccc(NC(=O)C4CCC4)c3)o2)cc1

SMILES	RP-LC retention time
O=C(C1CCN(c2cnc(N3CCSCC3)nc2)CC1)N1CCC2(CC1)OCCO2	692 s

Source: the METLIN SMRT retention time set (Domingo-Almenara et al. 2019)
